Reference: ChEMBL document CHEMBL4651402, “Screening of ~5500 FDA-approved drugs and clinical candidates for anti-SARS-CoV-2 activity” (2021)

Tested on: SARS-CoV-2
Assay: microbe, parasite or virus in culture
Settings: Severe acute respiratory syndrome coronavirus 2, Vero C1008, 48 h

SMILES	IC50 [µM]	IC50 (read-out: pIC50 (converted)) [µM]
CN1CCC(c2c[nH]c3ccc(NC(=O)c4ccc(F)cc4)cc23)CC1	> 20	> 20
CCCCC(=O)N(Cc1ccc(-c2ccccc2-c2nnn[nH]2)cc1)[C@H](C(=O)O)C(C)C	> 20	> 20
O=C(O)C1(C(=O)O)CCC1	> 20	> 20
C[N+]1(C)C[C@H](O)C[C@H]1C(=O)O	> 20	> 20
C=C1c2c(Cl)ccc(O)c2C(=O)C2=C(O)[C@]3(O)C(=O)C(C(N)=O)=C(O)[C@@H](N(C)C)[C@@H]3[C@@H](O)C12 (some centres not stated)	> 20	> 20
CC[C@@H](C(N)=O)N1CCCC1=O	> 20	> 20
CO/N=C(\C#N)[C@@H]1CN2CCC1CC2	> 20	> 20
COC(=O)Nc1nc2cc(SC(C)C)ccc2[nH]1	> 20	> 20
CC(C)c1nc(N(C)S(C)(=O)=O)nc(-c2ccc(F)cc2)c1/C=C/C(O)CC(O)CC(=O)O (configuration not stated)	> 20	> 20
CS(=N)(=O)CC[C@H](N)C(=O)O (some centres not stated)	> 20	> 20
COc1nccnc1NS(=O)(=O)c1ccc(N)cc1	> 20	> 20
C/C=C1/C[N+]2(C)CCC34C(=C(C=O)[C@H]1C[C@@H]32)Nc1ccccc14 (some centres not stated)	> 20	> 20
Cc1noc(COc2ccccc2OCC(O)CNC(C)(C)C)n1 (configuration not stated)	> 20	> 20
CO[C@H]1C=C2CCN(C)[C@H]2C2c3cc4c(cc3C(=O)O[C@@H]21)OCO4 (some centres not stated)	> 20	> 20
Cc1n[nH]c(=O)[nH]c1=O	> 20	> 20
C[N+]1(CCC(C(N)=O)(c2ccccc2)c2ccccc2)CCCCC1	> 20	> 20
CNC(=O)c1ccc2cc([C@]3(O)CCn4cncc43)ccc2c1	> 20	> 20
CC(C(N)C(=O)NC(C(=O)O)C1OC(n2ccc(=O)[nH]c2=O)C(O)C1O)C(O)c1ccc(O)cn1 (configuration not stated)	> 20	> 20
CC1=CCCC2C1(C)CCC(C)C2(C)Cc1cc(O)ccc1O (configuration not stated)	> 20	> 20
CCOC(=O)/C=C/[C@H](C[C@@H]1CCNC1=O)NC(=O)[C@@H](CC(=O)[C@@H](NC(=O)c1cc(C)on1)C(C)C)Cc1ccc(F)cc1	> 25.1	> 25.1
Cc1cc(S(N)(=O)=O)ccc1NC(=O)COc1ccc(Cl)cc1C(=O)c1cc(Cl)cc(C#N)c1	> 20	> 20
CCc1cc(Nc2nc(-c3ccc(-n4cnc(C)c4)c(F)c3)cs2)c(C)cc1C	> 20	> 20

SMILES	IC50 [µM]	IC50 (read-out: pIC50 (converted)) [µM]
NC(CC(=O)NO)C(=O)O (configuration not stated)	> 20	> 20
CCC(CC)[C@H](c1ccc(Nc2nc3ccccc3s2)cc1)n1cncn1	> 20	> 20
O=C(Nc1ccccc1Br)N[C@H]1CCN(c2ccc(C(F)(F)F)cn2)C1	> 20	> 20
O=[N+]([O-])OC1COC2C(O[N+](=O)[O-])COC12 (configuration not stated)	> 20	> 20
Nc1nc(F)nc2c1ncn2[C@@H]1O[C@H](CO)[C@@H](O)[C@H]1O	> 20	> 20
O=C(O)[C@H](O)[C@@H](O)[C@H](O[C@@H]1O[C@H](CO)[C@H](O)[C@H](O)[C@H]1O)[C@H](O)CO	> 20	> 20
CCCN1CCC[C@@H](c2cccc(S(C)(=O)=O)c2)C1	> 20	> 20
NC(=O)N=NC(N)=O	> 20	> 20
Cc1ccc(S(=O)(=O)Nc2nc3ccccc3nc2Nc2ccc3nsnc3c2)cc1	> 20	> 20
CC(C)CN(C[C@@H](O)[C@H](Cc1ccccc1)NC(=O)[C@H](CC(N)=O)NC(=O)c1ccc2ccccc2n1)C(=O)NC(C)(C)C	> 20	> 20
O=C1N[11C](=O)C(c2ccccc2)(c2ccccc2)N1	> 20	> 20
O=C(O)C[C@@H]1CCc2c1[nH]c1ccc(OCc3ccc(C4CCCC4)c(C(F)(F)F)c3)cc21	> 20	> 20
CCCCCCC1C(=O)O[C@H](C)[C@H](NC(=O)c2cccc(NC=O)c2O)C(=O)O[C@@H](C)[C@@H]1OC(=O)CC(C)C (some centres not stated)	> 20	> 20
CN1C[C@H](CO)C=C2c3cccc4[nH]cc(c34)C[C@H]21	> 20	> 20
O=C1c2cccnc2OC[C@@H]2CCCN12	> 20	> 20
CCOC(=O)c1ccccc1OC(=O)CCCCCCCC(=O)Oc1ccccc1C(=O)OCC	> 20	> 20
CCN(CC)CCCCC(NC(=O)c1ccc([N+](=O)[O-])cc1)c1ccccc1 (configuration not stated)	> 20	> 20
CN1CC[C@@]2(C)c3cc(O)ccc3N(C)[C@H]12	> 20	> 20
CC(=O)Oc1cccc(C)c1	> 20	> 20
CC(C)(O/N=C(/C(=O)NC1C(=O)N2C(C(=O)O)=C(C[n+]3ccccc3)CSC12)c1csc(N)n1)C(=O)O (configuration not stated)	> 20	> 20
CO[C@H]1C[C@@H]2CC[C@@H](C)[C@@](O)(O2)C(=O)C(=O)N2CCCC[C@H]2C(=O)O[C@H]([C@H](C)C[C@@H]2CC[C@@H](OP(C)(C)=O)[C@H](OC)C2)CC(=O)[C@H](C)/C=C(/C)[C@@H](O)[C@@H](OC)C(=O)[C@H](C)C[C@H](C)\C=C/C=C\C=C/1C	> 20	> 20
C=C1[C@H](n2ccc(N)nc2=O)O[C@H](CO)[C@H]1O	> 20	> 20

SMILES	IC50 [µM]	IC50 (read-out: pIC50 (converted)) [µM]
C[C@@H]1CCC2[C@](C)(CO)[C@@H](O)CC[C@]2(C)[C@]12CCC(CO)(CCO)O2 (some centres not stated)	> 20	> 20
CC[C@H](C)C[C@H](C)CCCCCCCCC(=O)N[C@H]1C[C@@H](O)[C@H](NCCN)NC(=O)[C@@H]2[C@@H](O)CCN2C(=O)[C@H]([C@H](O)CCN)NC(=O)C([C@H](O)[C@@H](O)c2ccc(O)cc2)NC(=O)[C@@H]2C[C@@H](O)CN2C(=O)C([C@@H](C)O)NC1=O (some centres not stated)	> 20	> 20
CCC(C)CCCCC(=O)N[C@@H](CCNCS(=O)(=O)O)C(=O)N[C@H](C(=O)N[C@@H](CCNCS(=O)(=O)O)C(=O)N[C@H]1CCNC(=O)[C@H]([C@@H](C)O)NC(=O)[C@@H](CCNCS(=O)(=O)O)NC(=O)[C@@H](CCNCS(=O)(=O)O)NC(=O)[C@H](CC(C)C)NC(=O)[C@@H](CC(C)C)NC(=O)[C@H](CCNCS(=O)(=O)O)NC1=O)[C@@H](C)O (some centres not stated)	> 20	> 20
CN1[C@@H]2CC(=O)C[C@H]1[C@H](O)C2	> 20	> 20
C[C@H]1O[C@H](O[C@H]2[C@H](O)[C@@H](O)[C@@H](O[C@@H]([C@H](O)[C@@H](O)C=O)[C@H](O)CO)O[C@@H]2CO)[C@H](O)[C@@H](O)[C@@H]1N[C@H]1C=C(CO)[C@@H](O)[C@H](O)[C@H]1O.C[C@H]1O[C@H](O[C@H]2[C@H](O)[C@@H](O)[C@@H](O[C@H]3[C@H](O)[C@@H](O)[C@H](O)O[C@@H]3CO)O[C@@H]2CO)[C@H](O)[C@@H](O)[C@@H]1N[C@H]1C=C(CO)[C@@H](O)[C@H](O)[C@H]1O	> 20	> 20
CC1C(=O)CC[C@@H]2C1(C)CC[C@H]1C2(C)CCC2(C)C3CC(C)(C)CCC3(C)CCC12C (some centres not stated)	> 20	> 20
COc1ccc2c(OC3CC4C(=O)NC5(C(=O)NS(=O)(=O)C6CC6)CC5/C=C\CCCCN(C)C(=O)C4C3)cc(-c3nc(C(C)C)cs3)nc2c1C (configuration not stated)	> 20	> 20
C[C@@H]1C(=O)O[C@H]2[C@H](O)[C@]34[C@@H]5OC(=O)[C@]3(O[C@@H]3OC(=O)[C@H](O)C34C(C(C)(C)C)C5O)[C@@]12O (some centres not stated)	> 20	> 20
C=CC[N@@+]12CC[C@]34c5ccccc5N5/C=C6\C7N(/C=C(/C53)[C@@H](C[C@@H]41)/C(=C/CO)C2)c1ccccc1[C@@]71CC[N@@+]2(CC=C)C/C(=C\CO)[C@@H]6C[C@@H]12 (some centres not stated)	> 20	> 20
CCC(=O)O[C@@H]1CC(=O)O[C@H](C)C/C=C\C=C/[C@@H](O)[C@H](C)C[C@H](CC=O)[C@H](O[C@H]2O[C@H](C)[C@@H](O[C@H]3C[C@@](C)(O)[C@@H](OC(=O)CC)[C@H](C)O3)[C@H](N(C)C)[C@H]2O)[C@H]1OC	> 20	> 20
CCN1CCN(c2cc(-c3ccccc3)c3ccccc3n2)CC1	> 20	> 20
CC(=O)OCC(=O)[C@@]1(O)CCC2C3CCC4=CC(=O)CC[C@]4(C)C3=CC[C@@]21C (some centres not stated)	> 20	> 20
OC(c1ccccc1)(c1ccccc1)[C@@H]1C[C@H]1c1ccncc1	> 20	> 20
CN1c2ccccc2[C@H](NCCCCCCC(=O)O)c2ccc(Cl)cc2S1(=O)=O	> 20	> 20
CC12CCC(=O)C=C1CCC1C2C(O)CC2(C)C1CCC2(O)C(=O)COP(=O)(O)O (configuration not stated)	> 20	> 20
COC(=O)N[C@@H](C(=O)N1CCC[C@@H]1c1ncc(-c2ccc(-c3ccc(-c4cnc([C@H]5CC6(CN5C(=O)[C@H](NC(=O)OC)C(C)C)OCCO6)[nH]4)cc3)cc2)[nH]1)C(C)C	> 20	> 20
CC(=O)O[C@H]1C(=O)[C@@]2(C)C([C@H](OC(=O)c3ccccc3)[C@]3(O)C[C@H](OC(=O)[C@H](O)[C@@H](NC(=O)c4ccccc4)c4ccccc4)C(C)=C1C3(C)C)[C@]1(OC(C)=O)CO[C@@H]1C[C@@H]2O (some centres not stated)	> 20	> 20
[N-]=[N+]=N[C@]1(CO)O[C@@H](n2ccc(N)nc2=O)[C@@H](O)[C@@H]1O	> 20	> 20
COC(=O)c1cnc2n1CCc1ccccc1C2=C1CCN(CCc2ccc(OCc3ccc4ccccc4n3)cc2)CC1	> 20	> 20
COc1ccc(-c2ccc(Cn3c(CC(C)(C)C(=O)O)c(SC(C)(C)C)c4cc(OCc5ccccn5)ccc43)cc2)cn1	> 20	> 20
O=C(NCNC(=O)NC1C(=O)NC(=O)N1CO)NC1C(=O)NC(=O)N1CO (configuration not stated)	> 20	> 20
Nc1nc(=O)n([C@H]2CC[C@@H](CO)O2)cc1F	> 20	> 20
